The term inhibition denotes how much of the control response was suppressed. Usually Kd stands for the equilibrium constant for the complex coming apart.

The target in one assay is T1, Nef/CNX interaction (Human immunodeficiency virus type 1 group M subtype B, UniProt P03406).
T1 construct: expressed in transfected cells; host or cells: HEK293T
Description: Co-immunoprecipitation of Nef and calnexin in transfected HEK293T cells. To be noted: for inhibition of co-immunoprecipitation of Nef and calnexin: added 6 h post-transfection, lysed 48 h post-transfection, HEK293T. Type of assay: cell-based, HIV-1. Here is the method: (§1) To test whether the compounds identified in the virtual screen can interfere with Nef/CNX interaction, a co-immunoprecipitation assay was performed. HEK293T cells were transfected with plasmid encoding for NefBRU and 6 h post-transfection were treated with NSC 1758 (4 μM), NSC 13987 (5 μM), or NSC 92938 (5 μM). These concentrations of the compounds were determined by the MTT assay to reduce cell metabolism by less than 10% during 5-day incubation (FIG. 6C). […] It was previously shown that membrane localization of Nef is important for interaction of Nef with calnexin (5). In order to rule out the possibility that the compound interferes with membrane localization of Nef, it was tested whether NSC 13987 affects interaction between Nef and ABCA1, as ABCA1/Nef interaction also requires membrane localization of Nef (1).
Their overall location in the structural alignment with the model of Nef-CNX complex is shown as translucent molecular surface. […] The set of compounds includes NSC 1758, NSC 13987, and NSC 92938 selected for experimental testing. b, Compound NSC 13987 docked to Nef binding site, which is centered on Lys4 and Lys7. Interactions of the compound with Nef include two hydrogen bonds with Nef amino acid residues Ser6 and Tyr124. […] THP-1 cells were treated with indicated compounds for 5 days and cytotoxicity was measured using MTT assay. In panel (D), HEK 293T cells were transfected with HA-tagged Nef, treated with compounds NSC 1758, NSC 13987 or NSC 92938, and lysed. Nef was immunoprecipitated using anti-HA agarose beads and bound complexes were immunoblotted for Nef and calnexin (left panels labeled IP: aIIA). Densitometric quantification of calnexin co-immunoprecipitation with Nef is presented in the right panel. Error bars indicate +/−SD of 3 independent experiments, and p values are shown above the bars. Whole cell lysates were analyzed for amount of calnexin, Nef and GAPDH (left panels labeled Lysate). In panel (E), HEK293T cells were co-transfected with ABCA1-FLAG and NefBRU and treated with compound NSC 13987. Cells were lysed 48 h post-transfection and ABCA1-FLAG was immunoprecipitated using anti-FLAG beads. Precipitated complexes were blotted for ABCA1 and Nef (top panels). Input amount was analyzed from whole cell lysates by immunoblotting for ABCA1, Nef and GAPDH (bottom panels).
Immunoprecipitation—For calnexin mutant/Nef interaction analysis, HEK293T cells were transfected with HA-tagged calnexin mutants and NefBRU expression plasmid. Cells were lysed 48 h post-transfection with 1% IGEPAL and 0.1% SDS lysis buffer on ice for 30 min. Lysates were incubated with anti-HA agarose beads for 2 h at 4° C. with rotation. Respective immunoprecipitates were washed three times with TBS (150 mM NaCl, 30 mM Tris-HCl, 5 mM EDTA, pH 7.5). […]

The test system of a further assay is ABCA1. Description: ABCA1 abundance in the presence of Nef. Type of assay: cell-based.
In the next assay the test system is HIV-1 ADA. Description: HIV-1 ADA replication in monocyte-derived macrophages (RT activity in supernatant). Type of assay: cell-based. The method, then: (§2) To test the effect of NSC 13987 in the context of natural infection, monocyte-derived macrophages (MDM) were infected with HIV-1 ADA, treated with NSC 13987 and cholesterol efflux was measured.
(§3) Specifically, in panel (A) THP-1 cells were transfected with Nef and incubated with compounds NSC 1758, NSC 13987 and NSC 92938 or DMSO, and cholesterol efflux was measured 5 days post-transfection. Error bars show SEM. In panel (B) primary macrophages were infected in triplicate with HIV-1 ADA. Compound NSC 13987 (5 μM) or DMSO was added 3 days after infection and maintained thereafter, and virus replication was monitored by measuring RT-activity in the supernatant over a 14-day period. Results of 3 measurements are shown as mean ±SEM. *, p<0.005; **, p<0.007. In panel (C) primary macrophages were infected with HIV-1 ADA or mock-infected and treated with DMSO or NSC13987 as in panel B. Cholesterol efflux was measured 14 days post-infection. Error bars show SEM.

For a further assay, the target named is T2, ABCA1/Nef interaction (Human immunodeficiency virus type 1 group M subtype B, UniProt P03406).
T2 construct: expressed in transfected cells; host or cells: HEK293T
Description: Co-immunoprecipitation of ABCA1-FLAG and Nef in HEK293T cells. It counts as cell-based, HIV-1. To be noted: HEK293T co-transfected with ABCA1-FLAG and NefBRU, lysed 48 h post-transfection. The method, then:
as §1
Their overall location in the structural alignment with the model of Nef-CNX complex is shown as translucent molecular surface. […] THP-1 cells were treated with indicated compounds for 5 days and cytotoxicity was measured using MTT assay. […] Densitometric quantification of calnexin co-immunoprecipitation with Nef is presented in the right panel. […] Whole cell lysates were analyzed for amount of calnexin, Nef and GAPDH (left panels labeled Lysate). […] Input amount was analyzed from whole cell lysates by immunoblotting for ABCA1, Nef and GAPDH (bottom panels).

Assay [1] relates to THP-1 cells transfected with Nef. Description: apoA-I specific cholesterol efflux in Nef-transfected THP-1 cells. As to conditions: THP-1, PMA-activated, compared to DMSO-treated Nef expressing cells. Type of assay: cell-based. The method, then: Next, it was tested whether the three compounds could prevent impairment of cholesterol efflux by Nef. THP-1 cells were transfected with a Nef encoding plasmid and drug treatment was started 6 h after transfection. The following day cells were activated with PMA after which cholesterol efflux assay was performed. Drug treatment was continued throughout the duration of the experiment. […] Cholesterol efflux in Nef-transfected untreated or DMSO-treated cells was reduced by over 2-fold relative to mock-transfected cells.
as §3, with “period. […]” for “period. Results of 3 measurements are shown as mean ±SEM. *, p<0.005; **, p<0.007.”, “post-infection. […]” for “post-infection. Error bars show SEM.”
Cholesterol Efflux—Infected cells were seeded in a 24-well plate and labeled with [^3H] cholesterol for 48 h. […] Level of radioactivity in the media as well as in the cells was determined by scintillation counting. […]

Assay [2] concerns monocyte-derived macrophages (MDM) infected with HIV-1 ADA. Description: Cholesterol efflux from HIV-1 ADA infected monocyte-derived macrophages. It counts as cell-based. To be noted: 14 days post-infection, versus mock-infected cells. Here is the method:
as §2, §3
Cholesterol Efflux—Infected cells were seeded in a 24-well plate and labeled with [^3H] cholesterol for 48 h. […] Level of radioactivity in the media as well as in the cells was determined by scintillation counting. Cholesterol efflux was calculated as the percentage of radioactivity in the media divided by the total amount measured in the cells and media. […]

A further assay deals with T3, calnexin (CNX) (Homo sapiens, UniProt P27824).
T3 construct: Full length CNX and the C-terminal (cytoplasmic) domain of CNX (CNX-CT) were captured on CMS chips by amine coupling; His-tag (H8) (N); made in house; host or cells: E. coli BL21 DE
T3 sequence (P27824 21-592): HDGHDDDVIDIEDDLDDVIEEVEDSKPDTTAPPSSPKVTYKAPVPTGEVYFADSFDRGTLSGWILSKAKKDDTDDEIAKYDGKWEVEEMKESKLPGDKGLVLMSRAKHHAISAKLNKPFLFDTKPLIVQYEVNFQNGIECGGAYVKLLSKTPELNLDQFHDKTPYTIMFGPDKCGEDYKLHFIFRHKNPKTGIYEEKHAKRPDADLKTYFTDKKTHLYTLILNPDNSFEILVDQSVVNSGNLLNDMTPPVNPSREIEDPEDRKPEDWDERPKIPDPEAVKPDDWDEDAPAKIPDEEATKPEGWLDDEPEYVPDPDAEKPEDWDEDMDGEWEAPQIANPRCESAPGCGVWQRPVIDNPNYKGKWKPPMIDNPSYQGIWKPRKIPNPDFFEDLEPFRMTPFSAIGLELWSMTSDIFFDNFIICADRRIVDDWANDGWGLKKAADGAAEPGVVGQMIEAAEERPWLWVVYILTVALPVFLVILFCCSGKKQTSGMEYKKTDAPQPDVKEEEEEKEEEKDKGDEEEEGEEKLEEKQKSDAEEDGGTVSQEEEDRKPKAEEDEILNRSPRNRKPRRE
Description: Surface plasmon resonance, immobilized full-length calnexin. To be noted: myristoylated Nef injected at 6.25-200 nM, 25° C. It counts as binding. Here is the method:
(§4) Binding of myristoylated NefsF2 (33) to CNX and its cytoplasmic domain was analyzed using surface plasmon resonance (FIGS. 5B,C). CNX and CNX-CT were immobilized on microchip surfaces and myristoylated Nef was injected over the surface.
Steps of full-length CL7-tagged calnexin (CNX-CL7) purification are shown in detail. Whole cell lysate (WCL) was centrifuged to remove cell debris, the supernatant (SN) was treated with 0.07% polyethylene-emine (PE) to precipitate DNA, the pellet (PL), which contained most of CNX protein, was washed with detergent-containing buffer to release CNX into solution, centrifuged and the resulting supernatant was loaded on Immunity protein 7 (Im7) column. […] ACNX—truncated CNX fragment; SUMO—SUMO domain; P(PSC), P(SUMOP)—cleavage sites for the PSC and SUMO proteases, respectively; H8—8-Histidine tag (SEQ ID NO: 2). In panels (B) and (C), surface plasmon resonance experiments were done in a Biacore T-200 by using a CMS chip. […]
Surface Plasmon Resonance Experiments—Direct binding between purified recombinant proteins was evaluated by surface plasmon resonance technology utilizing a Biacore T-200 instrument at the Biacore Molecular Interaction Shared Resource of Georgetown University. […] The data was analyzed by BiaEvaluation software using the bivalent analyte model.
Background: In SPR one partner is held on a chip, and binding of the other changes the refractive index at the surface.

For assay [3], the target named is T4, cytoplasmic tail of CNX (CNX-CT) (Homo sapiens, UniProt P27824).
T4 construct: the C-terminal (cytoplasmic) domain of CNX (CNX-CT) were captured on CMS chips by amine coupling; His-tag (N); SUMO domain (N); made in house; host or cells: E. coli BL21 DE
T4 sequence (P27824 503-592 limits assumed): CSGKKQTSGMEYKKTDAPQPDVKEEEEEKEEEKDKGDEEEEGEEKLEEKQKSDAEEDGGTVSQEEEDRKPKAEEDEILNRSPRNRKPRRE
Description: Surface plasmon resonance, immobilized calnexin cytoplasmic tail. To be noted: myristoylated Nef injected at 6.25-200 nM, 25° C. Type of assay: binding. The method, then: as §4
Steps of full-length CL7-tagged calnexin (CNX-CL7) purification are shown in detail. Whole cell lysate (WCL) was centrifuged to remove cell debris, the supernatant (SN) was treated with 0.07% polyethylene-emine (PE) to precipitate DNA, the pellet (PL), which contained most of CNX protein, was washed with detergent-containing buffer to release CNX into solution, centrifuged and the resulting supernatant was loaded on Immunity protein 7 (Im7) column. […] ACNX—truncated CNX fragment; SUMO—SUMO domain; P(PSC), P(SUMOP)—cleavage sites for the PSC and SUMO proteases, respectively; H8—8-Histidine tag (SEQ ID NO: 2). In panels (B) and (C), surface plasmon resonance experiments were done in a Biacore T-200 by using a CMS chip. […] Lines representing actual data and a curve fit to a […] analyte binding model in BiaEvaluation software are shown.
Surface Plasmon Resonance Experiments—Direct binding between purified recombinant proteins was evaluated by surface plasmon resonance technology utilizing a Biacore T-200 instrument at the Biacore Molecular Interaction Shared Resource of Georgetown University. Full length CNX and the C-terminal (cytoplasmic) domain of CNX (CNX-CT) were captured on CMS chips by amine coupling. Three surfaces of CM5 chip were activated by NHS/CDC (N-hydroxysuccinimide/1-ethyl-3-(3-dimethylaminopropyl)carbodiimide hydrochloride) for 720 sec. Flow cell 1 was left empty as a reference surface. Full length CNX and CNX-CT were diluted in 10 mM sodium acetate (pH 4.0) buffer at 1.8 μM and 10.6 μM, respectively, and captured on flow cell 3 and flow cell 2, at 3200 RU and 16600 RU, respectively. After protein capture, all 3 flow cells were inactivated by 720 sec injection of 1 M ethanolamine. […] The data was analyzed by BiaEvaluation software using the bivalent analyte model.

Entries after “also recorded” stand apart in the source; their conditions may differ.

T2 sequence (O95477 whole entry, other chains not shown): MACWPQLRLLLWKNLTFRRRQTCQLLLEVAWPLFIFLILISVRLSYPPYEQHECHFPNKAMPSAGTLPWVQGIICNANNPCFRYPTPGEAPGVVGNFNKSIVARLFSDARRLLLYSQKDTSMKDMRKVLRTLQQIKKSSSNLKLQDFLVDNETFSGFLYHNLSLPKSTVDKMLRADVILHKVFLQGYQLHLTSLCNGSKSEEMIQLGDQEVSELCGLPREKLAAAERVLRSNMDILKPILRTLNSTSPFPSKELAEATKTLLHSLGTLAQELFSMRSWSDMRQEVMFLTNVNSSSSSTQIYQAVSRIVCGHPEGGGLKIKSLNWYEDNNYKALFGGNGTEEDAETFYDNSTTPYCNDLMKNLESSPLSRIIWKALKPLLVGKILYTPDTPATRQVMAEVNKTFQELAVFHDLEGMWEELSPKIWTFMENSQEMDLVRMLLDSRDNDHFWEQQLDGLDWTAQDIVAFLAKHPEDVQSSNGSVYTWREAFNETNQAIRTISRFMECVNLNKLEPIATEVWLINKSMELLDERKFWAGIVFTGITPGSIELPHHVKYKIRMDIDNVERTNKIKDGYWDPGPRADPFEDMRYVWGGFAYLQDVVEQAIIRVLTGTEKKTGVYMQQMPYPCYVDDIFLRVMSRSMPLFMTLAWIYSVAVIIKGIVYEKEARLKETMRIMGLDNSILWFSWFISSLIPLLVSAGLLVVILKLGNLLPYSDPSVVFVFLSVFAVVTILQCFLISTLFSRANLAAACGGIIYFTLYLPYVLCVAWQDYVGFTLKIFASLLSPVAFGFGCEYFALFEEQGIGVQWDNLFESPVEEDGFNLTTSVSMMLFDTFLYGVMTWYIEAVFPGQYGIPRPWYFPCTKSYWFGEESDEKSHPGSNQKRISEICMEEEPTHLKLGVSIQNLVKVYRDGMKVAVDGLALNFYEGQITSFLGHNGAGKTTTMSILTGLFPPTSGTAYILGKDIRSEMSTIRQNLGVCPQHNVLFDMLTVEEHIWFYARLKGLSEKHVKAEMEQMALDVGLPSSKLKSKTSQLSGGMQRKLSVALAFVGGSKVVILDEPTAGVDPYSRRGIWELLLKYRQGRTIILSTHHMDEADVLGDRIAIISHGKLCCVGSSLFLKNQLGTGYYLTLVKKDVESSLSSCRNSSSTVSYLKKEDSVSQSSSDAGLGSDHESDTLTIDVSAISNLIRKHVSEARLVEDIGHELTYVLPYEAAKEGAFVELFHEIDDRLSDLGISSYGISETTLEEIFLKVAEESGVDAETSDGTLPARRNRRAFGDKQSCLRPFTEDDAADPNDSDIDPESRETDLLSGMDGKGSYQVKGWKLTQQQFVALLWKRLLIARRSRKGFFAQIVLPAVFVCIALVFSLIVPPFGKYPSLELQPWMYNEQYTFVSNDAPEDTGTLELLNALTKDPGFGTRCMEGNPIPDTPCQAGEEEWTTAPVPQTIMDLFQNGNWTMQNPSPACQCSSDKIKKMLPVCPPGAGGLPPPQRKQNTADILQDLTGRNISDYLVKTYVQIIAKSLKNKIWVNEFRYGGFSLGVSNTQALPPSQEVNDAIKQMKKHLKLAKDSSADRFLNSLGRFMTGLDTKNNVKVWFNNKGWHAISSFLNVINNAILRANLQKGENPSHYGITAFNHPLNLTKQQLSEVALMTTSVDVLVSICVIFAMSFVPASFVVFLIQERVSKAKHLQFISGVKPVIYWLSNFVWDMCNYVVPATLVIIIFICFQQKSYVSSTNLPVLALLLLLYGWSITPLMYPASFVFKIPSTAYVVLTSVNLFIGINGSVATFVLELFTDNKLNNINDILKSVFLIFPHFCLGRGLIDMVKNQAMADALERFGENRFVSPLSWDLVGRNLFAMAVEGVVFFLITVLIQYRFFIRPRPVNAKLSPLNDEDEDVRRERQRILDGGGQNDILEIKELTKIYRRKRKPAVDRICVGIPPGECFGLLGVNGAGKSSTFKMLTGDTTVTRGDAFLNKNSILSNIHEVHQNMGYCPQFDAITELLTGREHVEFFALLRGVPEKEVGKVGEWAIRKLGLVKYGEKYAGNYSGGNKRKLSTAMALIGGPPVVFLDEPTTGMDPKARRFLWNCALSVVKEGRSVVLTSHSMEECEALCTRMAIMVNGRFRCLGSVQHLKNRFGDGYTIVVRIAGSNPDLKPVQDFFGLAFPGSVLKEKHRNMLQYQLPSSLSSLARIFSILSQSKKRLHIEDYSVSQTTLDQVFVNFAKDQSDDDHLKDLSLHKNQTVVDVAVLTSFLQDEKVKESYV

As to `N=C(Nc1cc2ccccc2c2ccccc12)Nc1cc2ccccc2c2ccccc12` [NSC 1758, 1,3-DI-9-Phenanthrylguanidine], the “inhibition of co-immunoprecipitation of Nef and calnexin” value (from here on “inhibition … of Nef and calnexin”) against Nef/CNX interaction (4 μM) is reported as “showed a trend towards inhibiting Nef/CNX binding but did not reach statistical significance”.

For `O=C1c2ccccc2C(=O)c2c(Nc3ccc4c5c(cccc35)C(=O)c3ccccc3-4)cccc21` [NSC 13987, 1[(7-Oxo-7H-benz[de]anthracene-3-yl)amino] anthraquinone], the “Nef-mediated effect on ABCA1 abundance” value in the assay with ABCA1 is given as “reversed Nef-mediated effect on ABCA1 abundance”. Besides, the “viral replication in the presence of the compound” value in the assay on HIV-1 ADA (5 μM added 3 days after infection, RT activity over 14 days, primary macrophages) is “reduced”. For the same compound, the “inhibition of viral replication” value in the assay with HIV-1 ADA (FIG. 7B, HIV-1 ADA in primary macrophages, 5 μM) was approximately 2 fold. Besides, the “effect on ABCA1/Nef interaction” value at ABCA1/Nef interaction is reported as “remained unaffected”. The “cholesterol efflux in Nef-transfected cells” value in assay [1] is on record as “significantly increased; also recorded: restored cholesterol efflux impaired by Nef”. The “inhibition … of Nef and calnexin” value at Nef/CNX interaction (5 μM) was “prevented co-precipitation of CNX with Nef”. On Nef/CNX interaction (HEK-293T, read-out: inhibition of co-immunoprecipitation of Nef and calnexin), the inhibition at 5 µM is more than 50%. Moreover, the “cholesterol efflux from HIV-infected cells” value in assay [2] is “not significantly different from that of mock-infected cells”.

Take `O=C1c2ccccc2C(=O)c2c1ccc1c2[nH]c2ccccc21` [NSC 92938, 5H-Naphtho(2,3-a)carbazole-5,13(12H)-dione]: the “inhibition … of Nef and calnexin” value against Nef/CNX interaction (5 μM) is on record as “showed a trend towards inhibiting Nef/CNX binding but did not reach statistical significance”.

In the assay with calnexin (CNX), “NefSF2: myristoylated HIV-1 Nef SF2 protein injected over immobilized calnexin in surface plasmon resonance” yielded a ka of 133800 M⁻¹ s⁻¹ and a kd of 0.01192 s⁻¹. Also, in assay [3], the ka was found to be 908300 M⁻¹ s⁻¹ and the kd came to 0.008569 s⁻¹. Also, in assay [3] (Biacore T-200, read-out: affinity (KD)), the Kd amounted to 9.4 nM.

(Values after patent US11561217B2, “Compounds inhibiting Nef-calnexin interaction” (The George Washington University, a Congressionally …, priority 2016, dated 2023).)
